Source: paper PMC10665444, “Unveiling the potential role of natriuretic peptide receptor a isoforms in fine-tuning the cGMP production and tissue-specific function” (Scientific Reports, 2023)

How the values were obtained:
NPR-A isoform 1 = test: Whole-cell cGMP assay (competitive ELISA), DLD-1 cells transfected with NPR-A isoform 1 alone; assay type: cell-based, rat; details: IBMX 0.5 mM 30 min, then peptide 30 min
Excerpt: (§1) A plasmid containing rat NPR-A in a pCMV-4 backbone, gifted by Dr. Ruey-Bing Yang (Academia Sinica), was used as the NPR-A template. All three receptor isoforms plasmids were created by modifying the NPR-A sequence in the template plasmid using Site-Directed Mutagenesis (SDM) following the protocol from the Q5® Site-Directed Mutagenesis kit. All plasmids were cloned and expanded in NEB 5 α competent cells. DNA sequencing was done to confirm the success of the SDM. Primers used to clone isoform 1 are 5’—tga ccc tga gtg ggg gca acc ttg tgg c—3’ and 5’—gcc aca agg ttg ccc cca ctc agg gtc a—3’. primers used to clone isoform 2 are 5’ –gac ggg tgc ctt cag gcc ctg cca ggt tgt cct gaa cta ta—3’ and 5’ –tat agt tca gga caa cct ggc agg gcc tga agg cac ccg tc—3’. Primers used to clone isoform 3 are 5’—gtg gag gat ggc ctg gca gtg aca gag act—3’ and 5’—agt ctc tgt cac tgc cag gcc atc ctc cac—3’.
(§2) DLD-1 cells were cultured in complete RPMI-1640 medium supplemented with 10% HI-FBS and 1% Penicillin–Streptomycin (P/S). Cells were sub-cultured every 3 days using trypsinization. […]
(§3) Cells were transfected following the transfection protocol above and incubated for another 16 h overnight. […] Total protein content of three wells were determined using Bicinchoninic acid assay and used for normalizing across the different 24-well plates. Expression of the receptors in 3 wells were determined using Western blotting.

NPR-A isoform 2 = test: Whole-cell cGMP assay (competitive ELISA), DLD-1 cells transfected with NPR-A isoform 2 alone; assay type: cell-based, rat; details: IBMX 0.5 mM 30 min, then peptide 30 min
Excerpt: as §1, §2, §3

NPR-A isoform 3 = test: Whole-cell cGMP assay (competitive ELISA), DLD-1 cells transfected with NPR-A isoform 3 alone; assay type: cell-based, rat; details: IBMX 0.5 mM 30 min, then peptide 30 min
Excerpt: as §1, §2, §3

[1] = tested on: WT NPR-A co-transfected with isoform 1; test: Whole-cell cGMP assay, DLD-1 cells co-transfected with WT NPR-A and isoform 1; assay type: cell-based, rat; details: peptide 30 min, ELISA, triplicates
Excerpt: as §1, §2, §3

[2] = tested on: WT NPR-A co-transfected with isoform 2; test: Whole-cell cGMP assay, DLD-1 cells co-transfected with WT NPR-A and isoform 2; assay type: cell-based, rat; details: peptide 30 min, ELISA, triplicates
Excerpt: as §1
(§4) DLD-1 cells were cultured in complete RPMI-1640 medium supplemented with 10% HI-FBS and 1% Penicillin–Streptomycin (P/S). Cells were sub-cultured every 3 days using trypsinization. DLD-1 cells (0.2 million) were seeded per well in 24-well plates to attain near 70% confluent before transfection was performed following the manufacturer’s protocol. Plasmids of interest was incubated with lipofectamine 3000 in a 1:1 ratio before the mixture was added to the cells. For single transfection, 0.8 μ g of the plasmid of interest was used. For co-transfection, the NPR-A WT plasmid was fixed at 0.8 μ g and the receptor isoforms were mixed with the WT plasmid according to their given percentages. For 1% co-transfection, 0.8 μ g of NPR-A WT plasmid was mixed with 0.00808 μ g of receptor isoforms. […]
as §3

[3] = tested on: WT NPR-A co-transfected with isoform 3; test: Whole-cell cGMP assay, DLD-1 cells co-transfected with WT NPR-A and isoform 3; assay type: cell-based, rat; details: peptide 30 min, ELISA, triplicates
Excerpt: as §1, §4, §3

[4] = tested on: WT NPR-A co-transfected with receptor isoforms; test: Whole-cell cGMP assay, DLD-1 cells co-transfected with WT NPR-A and isoforms (statements over more than one isoform); assay type: cell-based, rat; details: 1% co-transfection of isoform 1 and 2
Excerpt: as §1, §2, §3

NPR-A [5] = details: compared with the vasodilatory analogue (DRD-ANP); cited from earlier work
Excerpt: We evaluated the roles of three distinct amino acid residues found within the K-ring and the C-terminal and identified the residues that are responsible for these functions. […] The separation of diuretic and hemodynamic bioactivity in DRD-ANP and D ...

NPR-A [6] = details: ANP compared with BNP; cited from earlier work
Excerpt: They interact with three NP receptors (NPRs), namely NPR-A, NPR-B and NPR-C. Lack of NPs or their receptors have been associated with hypertension and heart failure.

In the case of `CC[C@H](C)[C@@H]1NC(=O)[C@H](CCCNC(=N)N)NC(=O)[C@H](CC(=O)O)NC(=O)[C@H](CCSC)NC(=O)[C@H](CCCNC(=N)N)NC(=O)CNC(=O)CNC(=O)[C@H](Cc2ccccc2)NC(=O)[C@@H](NC(=O)[C@H](CO)NC(=O)[C@H](CO)NC(=O)[C@H](CCCNC(=N)N)NC(=O)[C@H](CCCNC(=N)N)NC(=O)[C@H](CC(C)C)NC(=O)[C@@H](N)CO)CSSC[C@@H](C(=O)N[C@@H](CC(N)=O)C(=O)N[C@@H](CO)C(=O)N[C@@H](Cc2ccccc2)C(=O)N[C@@H](CCCNC(=N)N)C(=O)N[C@@H](Cc2ccc(O)cc2)C(=O)O)NC(=O)CNC(=O)[C@H](CC(C)C)NC(=O)CNC(=O)[C@H](CO)NC(=O)[C@H](CCC(N)=O)NC(=O)[C@H](C)NC(=O)CNC1=O` [ANP, Atrial natriuretic peptide], the “cGMP production (result in words)” value (NPR-A isoform 1) is reported as “no cGMP production was observed”, the “cGMP production (result in words)” value (NPR-A isoform 2) is reported as “no cGMP production was observed” and the “cGMP production (result in words)” value (NPR-A isoform 3) is reported as “no cGMP production was observed”. For the same molecule, the “decrease in cGMP production of WT NPR-A” value ([1]; 1% co-transfection with isoform 1) was “approximately 10.6%”, the “decrease in cGMP production of WT NPR-A” value ([1]; 50% co-transfection with isoform 1) was 87.4% and the “decrease in cGMP production of WT NPR-A” value ([2]; 1% co-transfection with isoform 2) was 8.0%. For the same molecule, the “decrease in cGMP production of WT NPR-A” value ([2]; 10% co-transfection with isoform 2) was 69.8%, the “decrease in cGMP production of WT NPR-A” value ([2]; 50% co-transfection with isoform 2) was 84.1% and the “decrease in cGMP production of WT NPR-A” value ([3]; 1% co-transfection with isoform 3) was 22.6%. The “decrease in cGMP production of WT NPR-A” value ([3]; 10% co-transfection with isoform 3) was 54.3%, the “decrease in cGMP production of WT NPR-A” value ([3]; 50% co-transfection with isoform 3) was 86.2% and the “reduction in cGMP production (range over isoforms 1 and 2)” value [4] was 8–10.6%. The “rate of cGMP production (in words)” value (NPR-A [5]) was “produce cGMP much faster than the vasodilatory analogue (DRD-ANP)” and the “binding affinity for NPR-A (in words)” value (NPR-A [6]) was “stronger binding affinity than BNP”.
